{"source": "patent US20260335398A1", "about": "“METHODS FOR TREATING PANCREATIC CANCER WITH A COMBINATION OF DES-METHYL PATEAMINE A AND A CLASS I HDAC INHIBITOR” (Baylor University, priority 2023, published 2026)", "key": {"MIA PaCa-2 cells": {"test_system": "MIA PaCa-2 cells", "assay": "Metabolic flux analysis, basal mitochondrial respiration (OCR) (FIG. 8C left)", "type": "cell-based", "conditions": "MIA PaCa-2, total 18 h", "experimental": "FIG. 8C left panel presents the results of metabolic flux analysis showing basal mitochondrial respiration (OXPHOS) (oxygen consumption rate, OCR) in MIA PaCa-2 cells following treatment with combinations or single drugs. Treatment was for a total of 18 h, as mentioned in FIG. 8A. Statistical significance was determined by one-way ANOVA, ***p value<0.001, *p value<0.01. FIG. 8C right panel presents the results of quantification of glutamine consumption. Cells were treated as mentioned in FIG. 8A. Prior to the metabolic measurements cells were starved of glucose, glutamine, and pyruvate for 1-hour after which glutamine was added and response was recorded as ΔOCR (i.e. OCR before and after glutamine addition). Statistical significance was determined by one-way ANOVA, ****p value<0.0001, ***p value<0.0005.\nBecause reprograming/augmentation of cellular metabolism by c-MYC is known to support oncogenesis, the Seahorse XF analyzer was used to assess the impact of the treatments on c-MYC-driven metabolism including ATP production, glycolysis, and mitochondrial oxidative phosphorylation (OXPHOS). Extracellular acidification rates, also known as proton efflux rate (PER), were measured for glycolysis and mitochondrial oxygen consumption rates (OCR) for OXPHOS. We utilized the 6 h exposure followed by 18 h washout strategy for romidepsin described earlier. […]"}, "[1]": {"assay": "Body weight of xenograft mice (FIG. 2B)", "type": "in vivo, athymic nude mice", "conditions": "IP; romidepsin 0.75 mg/kg, DMPatA 0.075 mg/kg", "text": "FIGS. 2A and 2B illustrate the results of a MIA PaCa-2 xenograft model of PDAC in male athymic nude mice. FIG. 2A compares tumor growth (mm^3) in mice treated with the indicated concentrations of combination, romidepsin and DMPatA using IP route and vehicles described in the materials and methods section below. FIG. 2B compares body weight (g) of mice treated with the combination and single agents following treatment. FIGS. 2C and 2D compare quantification of H3K9ac and c-MYC antibodies. Frozen sections from MIA PaCa-2 xenograft tumor tissues were subjected to immunohistochemical analysis using antibodies against H3K9ac, and c-MYC. Fluorescence images were captured using fluorescent microscopy and the fluorescent signal from H3K9ac and c-MYC antibodies were quantified. To quantify fluorescence intensity at least 500 cells per condition were measured for each antibody at 40× magnification. The median of the signal intensity is shown. Statistical significance was determined by one-way ANOVA using Tukey multiple comparisons test, ****p value<0.0001.\nAnimal studies were performed according to Institutional Animal Care and Use Committee (IACUC) protocol number AC-AABD2601. Following the establishment of initial dose levels for individual drugs, efficacy of the combination and single agents in a MIA PaCa-2 xenograft model was assessed at a tolerable dose and schedule. […]"}}}
{"smiles": "C/C=C1\\NC(=O)[C@H]2CSSCC/C=C/[C@H](CC(=O)N[C@H](C(C)C)C(=O)N2)OC(=O)[C@H](C(C)C)NC1=O", "note": "[romidepsin]", "values": [{"measurement": "mitochondrial function (OCR)", "setting": "MIA PaCa-2 cells", "value": "impaired mitochondrial function"}, {"measurement": "body weight vs vehicle", "setting": "[1]", "value": "neither the single agent nor the combination treatments had a significant impact on weight"}]}
